Measured values reported in patent publication EP2264054A1, “Cloning, yeast expression, purification and biological activity of a truncated form of the soybean 7S globulin alfa ' subunit involved in Hep G2 cell cholesterol homeostasis” (Indena S.p.A., priority 2009, dated 2010).

Columns and labels:
HepG2 cells [1] = experiment: Uptake of 125I-LDL by HepG2 cells; format: cell-based, human; details: 1.0 µmol/L
Source text: Cell cultures. The established human hepatoma cell line (HepG2) was obtained from American Type Culture Collection (Rockville, MD). Eagle's minimum essential medium (MEM), fetal calf serum, trypsin-EDTA (1x), penicillin (10^5 U/L), streptomycin ([…]), tricine buffer (1 mmol/L, pH 7.4) and non-essential amino acid solutions (100x) were from GIBCO (Madison, WI). Petri dishes were from COSTAR (Cambridge, MA). Filters were from Millipore (Bedford, MA). The Protein Coomassie Plus Protein Assay kit was purchased from Pierce (Rockford, IL, USA). ^125Iodine, carrier free, in 100 mmol/L NaOH, was from Perkin Elmer Life Sciences (Boston, MA). Sephadex G25 columns (PD10) were from Pharmacia Biotech (Uppsala, Sweden). LDH and MTT kit were from Sigma Diagnostics (Milano-Italy). All other chemicals were of analytical grade from Merck (Darmstadt, Germany). […] Cell enzyme leakage was determined by measuring lactate dehydrogenase (LDH) activity, using a kinetic (LDH/LD) diagnostic kit (Sigma Diagnostics). […]
Uptake and degradation of ^125I-LDL. […] Specific uptake (binding + internalization) and degradation of ^l25I-LDL were evaluated as previously reported. […] Differences in cell uptake and degradation of LDL after cell incubation with tα' at different concentrations were determined by ANOVA followed by Dunnett's test. Values are expressed as means ± SD; P values < 0.05 were considered as statistically significant.

HepG2 cells [2] = experiment: Degradation of 125I-LDL by HepG2 cells; format: cell-based, human; details: 1.0 µmol/L
Protocol: Cell cultures. […] Cells were grown in monolayers in 90 mm-diameter Petri dishes, and maintained at 37°C in a humidified atmosphere of 95% air, 5% CO2 in MEM supplemented with 10% fetal calf serum (FCS), non essential amino acid solution (1%, v/v), penicillin (10^5 U/L), streptomycin (0.1 g/L), tricine buffer (20 mmol/L, pH 7.4), NaHCO3 (24 mmol/L) and sodium pyruvate (0.11 g/L). For experiments designed to evaluate the LDL receptor modulation, cells were seeded in 35 mm plastic dishes (3-5 x 10^5 cells) and used just before reaching confluence. In all cell culture experiments, the medium was changed every 2-3 days. In order to assess cell viability, culture media from cells exposed to tα' at different concentrations were tested by methyltetrazolium salts (MTT) assay, essentially as described in ref. 9. Cell enzyme leakage was determined by measuring lactate dehydrogenase (LDH) activity, using a kinetic (LDH/LD) diagnostic kit (Sigma Diagnostics). […]
Uptake and degradation of ^125I-LDL. […] Specific uptake (binding + internalization) and degradation of ^l25I-LDL were evaluated as previously reported [2]. […] Differences in cell uptake and degradation of LDL after cell incubation with tα' at different concentrations were determined by ANOVA followed by Dunnett's test. Values are expressed as means ± SD; P values < 0.05 were considered as statistically significant.

LDL-R = details: Hep G2 cells exposed to the peptide at 100 µM; cited from earlier work
[3] = 24 h preincubation in MEM with 5% LPDS, then 125I-LDL 7.5 mg/L for 5 h, mean ± SD

| Compound | Uptake (HepG2 cells [1]; [3]) | Uptake (HepG2 cells [1]; relative to LPDS = 100) [%] | Degradation (HepG2 cells [2]; [3]) | Degradation (HepG2 cells [2]; relative to LPDS = 100) [%] | increased LDL-R transcription (LDL-R) |
| --- | --- | --- | --- | --- | --- |
| CCC(C)(C)C(=O)O[C@H]1C[C@@H](C)C=C2C=C[C@H](C)[C@H](CC[C@@H]3C[C@@H](O)CC(=O)O3)[C@H]21 [Simvastatin] | 250 ± 11.2 ng125I-LDL/ mg cell proteins | 278 | 195 ± 7.9 ng125I-LDL/ mg cell protein | 250 | – |
| FVVNATSN [LDL-R transcription stimulating peptide deriving from the 7S globulin β chain, from a soybean hydrolysate and by chemical synthesis] | – | – | – | – | +148% |
